Measurements: PMC8206213, “An L-2-hydroxyglutarate biosensor based on specific transcriptional regulator LhgR” (Nature Communications, 2021)
“And” between values parts separate entries of the source, which are not always exact repeats. Equal entries are not always repeated.

Tests used:
[1] = target: LhgR (Pseudomonas putida W619); assay: SEC; gel filtration on Superdex 200 10/300 GL against protein mass standards, compared with SDS-PAGE; 50 mM sodium phosphate, 150 mM sodium chloride, pH 7.2
LHGFR0N7C [2] = target: T1, LHGFR0N7C; assay: FRET titration of purified sensor with D-2-HG (10 nM to 2 mM) in 50 mM Tris-HCl pH 7.4, Venus/mTFP emission ratio (excitation 430 nm).; assay type: binding; settings: SD, n = 3; read-out: apparent Kd in response to D-2-HG
T1 construct: FRET sensor: LhgR truncated by seven C-terminal amino acids between mTFP (N-terminus) and Venus (C-terminus)
Description: Purified L-2-HG biosensors and different compounds were diluted by 50 mM Tris-HCl buffer (pH 7.4), mixed together in a black 96-well plate at a volume ratio of 3:1, and the fluorescence intensities were measured using an EnSight microplate reader (PerkinElmer, USA) with excitation at 430 nm, emission at 485 nm (mTFP) and 528 nm (Venus). The dose-response curves were fitted by OriginPro 2016 software (OriginLab) according to the following formula:1 R=Rmax+Rmin−Rmax/1+([L-2-HG]/Kd)^p where R, Rmin, and Rmax refer to the emission ratio of Venus to mTFP, ratio in the absence of L-2-HG, and ratio at saturation with L-2-HG, respectively. The [L-2-HG], Kd, and p refer to the L-2-HG concentration, apparent dissociation constant, and Hill slope, respectively. Emission spectra were recorded at 430 nm excitation, in steps of 2 nm. Excitation spectra were recorded using emission at 550 nm, excitation from 380 to 535 nm in steps of 2 nm. […]
column in the presence of only L-2-HG was used as the control. (c, d) Comparison of the […]
LHGFR0N7C (d). […]
response to D-2-HG (1.85 ± 0.91 mM; black line) than L-2-HG (7.22 ± 0.38 μM; red line). (e-j) Dose-response curves of LHGFR0N3C (e, g, and i) and LHGFR0N7C (f, h, and j) for increasing concentrations (10 nM to 2 mM) of L-2-HG were measured in the presence of 240 μM D-2-HG (e, f), 1 mM 2-KG (g, h), or 1 mM ATP (i, j). […]

HEK293FT cells = assay: Hypoxia-induced L-2-HG production in LHGFR-expressing HEK293FT cells with or without 5 mM DMαKG; assay type: cell-based, human; settings: for L-2-HG concentration: in µM
Description: HEK293FT cells were cultured in high-glucose Dulbecco’s modified eagle medium (DMEM) supplemented with 10% (vol/vol) fetal bovine serum (FBS), 100 units mL^−1 penicillin, and 100 μg mL^−1 streptomycin (all purchased from ThermoFisher, USA), and kept at 37 °C in humidified air containing 5% CO2. For hypoxia experiments, cells were kept in a compact O2 and CO2 subchamber controller (ProOx C21, BioSpherix, USA) at 2% O2, 5% CO2, and balanced with N2 for 24 h. For the construction of LHGFR expressing cell, HEK293FT cells were plated in 24-well plates so that they reached 70-90% confluency 24 h after plating, the medium was refreshed 2 h before transfection.
The preparation of cell suspensions and the measurement of emission ratios were performed using the same procedure. The background fluorescence was subtracted at each emission wavelength.

LHGFR0N3C [3] = assay: Specificity of purified LHGFR0N3C, emission ratio with 240 μM compounds; assay type: binding, Pseudomonas putida W619; settings: 240 μM compound
Description: (§1) Purified L-2-HG biosensors and different compounds were diluted by 50 mM Tris-HCl buffer (pH 7.4), mixed together in a black 96-well plate at a volume ratio of 3:1, and the fluorescence intensities were measured using an EnSight microplate reader (PerkinElmer, USA) with excitation at 430 nm, emission at 485 nm (mTFP) and 528 nm (Venus). […] The [L-2-HG], Kd, and p refer to the L-2-HG concentration, apparent dissociation constant, and Hill slope, respectively. Emission spectra were recorded at 430 nm excitation, in steps of 2 nm. Excitation spectra were recorded using emission at 550 nm, excitation from 380 to 535 nm in steps of 2 nm.

LhgR = assay: EMSA, effect of compounds on LhgR binding to the lhgO promoter region F1; set-up: species or system Pseudomonas putida W619; settings: 50 mM compound, 10 nM F1, 60 nM LhgR
Description: Electrophoretic mobility shift assays (EMSAs) were carried out using the DNA fragment (F1 or F2) and purified LhgR. The DNA fragments were first amplified by primer pairs F1-F/F1-R and F2-F/F2-R, respectively. Then, either fragment at a concentration of 10 nM DNA was incubated with LhgR (0–160 nM) in 20 μL EMSA binding buffer (10 mM Tris-HCl [pH 7.4], 50 mM KCl, 0.5 mM EDTA, 10% [vol/vol] glycerol, and 1 mM dithiothreitol [DTT]). The binding reactions were carried out at 30 °C for 30 min. Electrophoresis was performed on 6% native polyacrylamide gels at 4 °C and 170 V (constant voltage) for about 45 min, followed by staining with SYBR green I (TaKaRa, China) and photographing. Analysis of the interaction between lhgO promoter region (F1) and LHGFR was performed using the same procedure.
To characterize the effector of LhgR, purified LhgR was first incubated with L-lysine, 5-aminovalerate, glutarate, L-2-HG, D-2-HG, 2-KG, or succinate at 30 °C for 15 min, followed by incubation with the added DNA fragments at 30 °C for 30 min. The mixtures were subsequently subjected to electrophoresis.

LHGFR0N7C [4] = assay: Influence of other compounds on the response of purified LHGFR0N7C to L-2-HG; assay type: binding, Pseudomonas putida W619; settings: Suppl. Fig. 9b; L-2-HG alone or with the compound; three replicates
Description: as §1

LHGFR0N7C [5] = assay: Specificity of purified LHGFR0N7C, emission ratio with 240 μM compounds; assay type: binding, Pseudomonas putida W619; settings: 240 μM compound
Description: as §1

LHGFR0N3C [6] = assay: Influence of other compounds on the response of purified LHGFR0N3C to L-2-HG; assay type: binding, Pseudomonas putida W619; settings: Suppl. Fig. 9a; L-2-HG alone or with the compound; three replicates
Description: as §1

Row | Compound | Emission ratio (LHGFR0N3C [3]) | Induction of emission ratio changes (LHGFR0N3C [3]) | Effect on LhgR binding to the lhgO promoter region F1 (LhgR) | Emission ratio (LHGFR0N7C [4]) | Emission ratio (LHGFR0N7C [5]) | Induction of emission ratio changes (LHGFR0N7C [5]) | Emission ratio (LHGFR0N3C [6]) | also measured
1 | LhgR (natural protein) |  |  |  |  |  |  |  | stoichiometry N [1]: 2
2 | O=C(O)CC[C@@H](O)C(=O)O [D-2-HG, D-2-hydroxyglutarate] |  |  |  |  |  |  |  | Kd (LHGFR0N7C [2]): 1850 µM
3 | COC(=O)CCC(=O)C(=O)OC [DMaKG] |  |  |  |  |  |  |  | Normalized emission ratio (HEK293FT cells; 2% O2, With DMaKG, Supplementary Fig. 18e): 1.018 and 0.9342 and 1.029 and 0.9552; Normalized emission ratio (HEK293FT cells; 21% O2, With DMaKG, Supplementary Fig. 18e): 1.029 and 0.993 and 1.008 and 0.9754; Normalized emission ratio (HEK293FT cells; Fig. 6f, 2% O2, With DMaKG): 1.196 and 1.188 and 1.187 and 1.206; L-2-HG concentration (HEK293FT cells; Fig. 6f, 2% O2, With DMaKG): 547.911 and 427.301 and 412.83 and 794.44; Normalized emission ratio (HEK293FT cells; Fig. 6f, 21% O2, With DMaKG): 1.081 and 1.084 and 1.102 and 1.071; L-2-HG concentration (HEK293FT cells; Fig. 6f, 21% O2, With DMaKG): 66.2807 and 68.36 and 87.5008 and 58.4114
4 | COC(=O)CCC(=O)C(=O)OC [dimethyl-2-ketoglutarate] |  |  |  |  |  |  |  | Effect on emission ratio of LHGFR0N3C (HEK293FT cells; 5 mM, hypoxic conditions, 24 h): significantly increased the emission ratio of LHGFR0N3C under hypoxic conditions
5 | NCCCC[C@H](N)C(=O)O [L-Lysine, L-lysine] | 1.377 and 1.382 and 1.394 | None | observed only in the presence of L-2-HG | 2.577 and 2.607 and 2.654 | 1.692 and 1.701 and 1.71 | None | 2.026 and 2.06 and 2.101 | 
6 | O=C(O)CCC(=O)C(=O)O [2-KG, 2-ketoglutarate] | 1.349 and 1.385 and 1.381 | None | observed only in the presence of L-2-HG | 2.436 and 2.603 and 2.441 | 1.701 and 1.693 and 1.728 | None | 2.007 and 2.049 and 2.099 | 
7 | O=C(O)CCC(=O)O [Succinate, succinate] | 1.357 and 1.389 and 1.4025 | None | observed only in the presence of L-2-HG | 2.581 and 2.619 and 2.616 | 1.718 and 1.724 and 1.726 | None | 2.013 and 2.0132 and 2.099 | 
